These results are taken from patent US12643879B2, “Functionalized heterocyclic compounds as modulators of stimulator of interferon genes (STING)” (RYVU THERAPEUTICS S.A., priority 2019, dated 2026).

Structures are written as SMILES. Counter-ions that a name gives are not always drawn. Like-named read-outs stand apart in the source and are kept apart here.

Usually EC50 stands for the concentration giving half of the maximal effect.

The target of one assay is human STING (Homo sapiens, UniProt Q86WV6). In words: Fluorescence Thermal Shift assay (binding to STING). The conditions noted are these: STING 0.1 mg/mL, SyproOrange, 25 to 99° C. Here is the method:
Compounds, constructs and conjugates of the present invention were tested for binding to human STING in Fluorescence Thermal Shift assay. STING was preincubated with the compounds for 20 minutes in 50 mM Hepes, 150 mM NaCl, pH 7.5 in 15 or 16 μl volume, following by adding 4 μl of SyproOrange dye dilution (ThermoFisher, cat no. S-6651). Final STING concentration was 0.1 mg/mL. Thermal unfolding was performed in Real-Time PCR QuantStudio 6 Flex System (Applied Biosystems), from 25 to 99° C., with continuous ramp mode and ramp rate 0.033° C./s. The data were analyzed using Protein Thermal Shift Software (ThermoFisher).

Assay [1] has as its system interferon regulatory factor (IRF) pathway in THP-1 dual cells. The experiment in a line: THP-1 Dual reporter assay, IRF pathway (luciferase). Type of assay: cell-based. The conditions noted are these: Homo sapiens, THP1-Dual, read-out: THP1 Dual EC50 (μM) IRF. An outline of the steps:
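After 18 h exposure of THP-1 dual cells to the STING agonist compounds, culture medium was collected. Part was mixed with luminescence reagent and read at once for IRF-driven luciferase; another part was incubated with SEAP detection medium for 1 or 2 hours at 37° C before absorbance at 630 or 655 nm.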

Assay [2] concerns NF-κB pathway in THP-1 dual cells. The experiment in a line: THP-1 Dual reporter assay, NF-κB pathway (SEAP). The conditions noted are these: Homo sapiens, THP1-Dual, read-out: THP1 Dual EC50 (μM) NFkB. Format: cell-based. A digest of the protocol:
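Compounds (STING agonists) stimulated THP-1 dual cells for 18 h; the cells carry an ISG54 promoter/ISRE-driven luciferase (IRF) and an IFN-β minimal promoter/NF-κB element-driven SEAP. Luciferase in conditioned medium was read by luminescence immediately; SEAP by absorbance at 630 or 655 nm after 1 or 2 h at 37° C.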
(In general: Reporter assays use an easily measured gene product as a stand-in for the process of interest.)

The mark [3] stands for this setting: 18 h stimulation, absorbance at 630 or 655 nm.

Chain of human STING (Q86WV6 whole entry H232R): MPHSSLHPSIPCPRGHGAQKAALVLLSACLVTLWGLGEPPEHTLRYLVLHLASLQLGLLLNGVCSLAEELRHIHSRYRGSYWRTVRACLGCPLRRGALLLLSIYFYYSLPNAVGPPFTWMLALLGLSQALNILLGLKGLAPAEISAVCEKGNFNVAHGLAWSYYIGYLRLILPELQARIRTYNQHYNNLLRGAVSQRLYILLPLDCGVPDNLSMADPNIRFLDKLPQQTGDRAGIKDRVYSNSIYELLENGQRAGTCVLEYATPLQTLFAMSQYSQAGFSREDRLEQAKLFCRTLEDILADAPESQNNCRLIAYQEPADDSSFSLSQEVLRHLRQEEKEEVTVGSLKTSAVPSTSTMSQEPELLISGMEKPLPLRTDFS

`Cc1ccc(N2CCC[C@H](N(Cc3ccnc(C)c3)Cc3cn(C4CC4)c4cc(N5CC[C@@H](N)C(F)(F)C5)c(F)cc4c3=O)C2)cn1.Cl` (single isomer, unassigned) [Example 56]: the “hSTING FTS binding assay (ΔT C. °)” value at human STING was “+++ (+++=ΔTm ≥20° C.)”.

Turning to `Cc1cc(CN(Cc2cn(C)c3ccccc3c2=O)[C@H]2CCCN(c3cccc(N)c3)C2)ccn1.Cl` [Example 1, 3-({[(3S)-1-(3-Aminophenyl)piperidin-3-yl][(2-methylpyridin-4-yl)methyl]amino}methyl)-1-methyl-1,4-dihydroquinolin-4-one hydrochloride], the EC50 fell in the range of 1 to 10 µM in assay [1] (18 h stimulation, luminescence) and 1 to 10 µM in assay [2] (setting [3]). On human STING, the “hSTING FTS binding assay (ΔT C. °)” value is listed as “+ (+=ΔTm ≤10° C.)”.

For the molecule `Cc1cc(CN(Cc2cn(C)c3ccccc3c2=O)[C@H]2CCCN(c3ccc(N)nc3)C2)ccn1` [Example 2, 3-({[(3S)-1-(6-Aminopyridin-3-yl)piperidin-3-yl][(2-methylpyridin-4-yl)methyl]amino}methyl)-1-methyl-1,4-dihydroquinolin-4-one], the EC50 in assay [1] (18 h stimulation, luminescence) is below 1 µM; in assay [2] (setting [3]), below 1 µM. In addition, on human STING, the “hSTING FTS binding assay (ΔT C. °)” value is “+++ (+++=ΔTm ≥20° C.)”.

For `Cc1cc(CN(Cc2cn(C)c3ccccc3c2=O)[C@H]2CCCN(c3ccc(CN)nc3)C2)ccn1.Cl` [Example 3, 3-({[(3S)-1-[6-(Aminomethyl)pyridin-3-yl]piperidin-3-yl][(2-methylpyridin-4-yl)methyl]amino}methyl)-1-methyl-1,4-dihydroquinolin-4-one hydrochloride], the EC50 in assay [1] (18 h stimulation, luminescence) is below 1 µM; in assay [2] (setting [3]) it was 1 to 10 µM. Further, the “hSTING FTS binding assay (ΔT C. °)” value at human STING is reported as “+ (+=ΔTm ≤10° C.)”.

For the molecule `Cc1ccc(N2CCC[C@H](N(Cc3ccnc(N)c3)Cc3cn(C4CC4)c4cc(F)c(F)cc4c3=O)C2)cn1.Cl` [Example 5, 3-({[(2-Aminopyridin-4-yl)methyl][(3S)-1-(6-methylpyridin-3-yl)piperidin-3-yl]amino}methyl)-1-cyclopropyl-6,7-difluoro-1,4-dihydroquinolin-4-one hydrochloride], the EC50 in assay [1] (18 h stimulation, luminescence) is below 1 µM; in assay [2] (setting [3]) it was below 1 µM. In addition, on human STING, the “hSTING FTS binding assay (ΔT C. °)” value is given as “+++ (+++=ΔTm ≥20° C.)”.

As for `Cc1cc(CN(Cc2cn(C(C)C)c3cc(F)c(F)cc3c2=O)[C@H]2CCCN(c3ccc(N)nc3)C2)ccn1.Cl` [Example 24, 3-({[(3)-1-(6-aminopyridin-3-yl)piperidin-3-yl][(2-methylpyridin-4-yl)methyl]amino}methyl)-6,7-difluoro-1-(propan-2-yl)-1,4-dihydroquinolin-4-one hydrochloride], the “hSTING FTS binding assay (ΔT C. °)” value at human STING is “+++ (+++=ΔTm ≥20° C.)”.

For the molecule `Cc1ccc(N2CCC[C@H](N(Cc3ccnc(C)c3)Cc3cn(C4CC4)c4cc(NC(=O)CN)c(F)cc4c3=O)C2)cn1` [Example 25, 2-amino-N-[1-cyclopropyl-6-fluoro-3-({[(3S)-1-(6-methylpyridin-3-yl)piperidin-3-yl][(2-methylpyridin-4-yl)methyl]amino}methyl)-4-oxo-1,4-dihydroquinolin-7-yl]acetamide], on human STING, the “hSTING FTS binding assay (ΔT C. °)” value was “+++ (+++=ΔTm ≥20° C.)”.

With `Cc1cc(CN(Cc2cn(C3CC3)c3cc(OCCO)c(F)cc3c2=O)[C@H]2C[C@H](F)CN(c3cnccn3)C2)ccn1` [Example 95, 1-cyclopropyl-6-fluoro-3-({[(3S,5S)-5-fluoro-1-(pyrazin-2-yl)piperidin-3-yl][(2-methylpyridin-4-yl)methyl]amino}methyl)-7-(2-hydroxyethoxy)-1,4-dihydroquinolin-4-one hydrochloride], the EC50 in assay [1] (18 h stimulation, luminescence) is below 1 µM; in assay [2] (setting [3]), below 1 µM.

Take `Cc1cc(CN(Cc2cn(C3CC3)c3cc(OCCO)c(F)cc3c2=O)[C@H]2CCCN(c3cccnn3)C2)ccn1` [Example 96, 1-cyclopropyl-6-fluoro-7-(2-hydroxyethoxy)-3-({[(2-methylpyridin-4-yl)methyl][(3S)-1-(pyridazin-3-yl)piperidin-3-yl]amino}methyl)-1,4-dihydroquinolin-4-one]: the EC50 in assay [1] (18 h stimulation, luminescence) was 1 to 10 µM; in assay [2] (setting [3]), above 10 µM.

As for `Cc1cc(CN(Cc2cn(C3CC3)c3cc(OCCO)c(F)cc3c2=O)[C@H]2CCCN(c3ccc(Cl)nc3)C2)ccn1` [Example 97, 3-({[(3S)-1-(6-chloropyridin-3-yl)piperidin-3-yl][(2-methylpyridin-4-yl)methyl]amino}methyl)-1-cyclopropyl-6-fluoro-7-(2-hydroxyethoxy)-1,4-dihydroquinolin-4-one hydrochloride], the EC50 in assay [1] (18 h) and in assay [2] (18 h) was below 1 µM in each case.

For the molecule `Cc1cc(CN(Cc2cn(C3CC3)c3cc(N4CCC[C@H](O)C4)c(F)cc3c2=O)[C@H]2CCCN(c3cnccn3)C2)ccn1` [Example 98, 1-cyclopropyl-6-fluoro-7-[(3S)-3-hydroxypiperidin-1-yl]-3-({[(2-methylpyridin-4-yl)methyl][(3S)-1-(pyrazin-2-yl)piperidin-3-yl]amino}methyl)-1,4-dihydroquinolin-4-one hydrochoride], the EC50 in assay [1] (18 h stimulation, luminescence) was below 1 µM; in assay [2] (setting [3]), below 1 µM.

As to `COc1cc(CN(Cc2cn(C3CC3)c3cc(F)c(F)cc3c2=O)[C@H]2CCCN(c3ccc(NC(C)=O)nc3)C2)ccn1` [Example 99, N-{5-[(3S)-3-{[(1-cyclopropyl-6,7-difluoro-4-oxo-1,4-dihydroquinolin-3-yl)methyl][(2-methoxypyridin-4-yl)methyl]amino}piperidin-1-yl]pyridin-2-yl}acetamide], the EC50 in assay [1] (18 h stimulation, luminescence) was below 1 µM; in assay [2] (setting [3]), below 1 µM.

For the molecule `Cc1cc(CN(Cc2cn(C3CC3)c3cc(OCCO)c(F)cc3c2=O)[C@H]2CCCN(c3ccc(C4CC4)nc3)C2)ccn1` [Example 100, 1-cyclopropyl-3-({[(3S)-1-(6-cyclopropylpyridin-3-yl)piperidin-3-yl][(2-methylpyridin-4-yl)methyl]amino}methyl)-6-fluoro-7-(2-hydroxyethoxy)-1,4-dihydroquinolin-4-one], the EC50 in assay [1] (18 h stimulation, luminescence) was below 1 µM; in assay [2] (setting [3]), below 1 µM.

Take `Cc1cc(CN(Cc2cn(C)c3ccccc3c2=O)[C@H]2CCCN(c3ccc(OCCO)nc3)C2)ccn1` [Example 101, 3-({[(3S)-1-[6-(2-hydroxyethoxy)pyridin-3-yl]piperidin-3-yl][(2-methylpyridin-4-yl)methyl]amino}methyl)-1-methyl-1,4-dihydroquinolin-4-one]: the EC50 in assay [1] (18 h stimulation, luminescence) lay within 1 to 10 µM; in assay [2] (setting [3]) it was 1 to 10 µM.

Regarding `Cc1cc(CN(Cc2cn(C3CC3)c3cc(Cl)c(F)cc3c2=O)[C@H]2CCCN(c3ccc(C(=O)O)nc3)C2)ccn1` [Example 102], the EC50 fell in the range of 1 to 10 µM in assay [1] (18 h stimulation, luminescence) and 1 to 10 µM in assay [2] (setting [3]).

`Cc1cc(CN(Cc2cn(C3CC3)c3cc(Cl)c(F)cc3c2=O)[C@H]2CCCN(c3ccc(C(N)=O)nc3)C2)ccn1` [Example 103, 5-[(3S)-3-{[(7-Chloro-1-cyclopropyl-6-fluoro-4-oxo-1,4-dihydroquinolin-3-yl)methyl][(2-methylpyridin-4-yl)methyl]amino}piperidin-1-yl]pyridine-2-carboxamide]: the EC50 was below 1 µM in assay [1] (18 h stimulation, luminescence) and below 1 µM in assay [2] (setting [3]).
